ChEMBL document CHEMBL1150634, “New dimeric macrolide glycosides from the marine sponge Myriastra clavosa” (J Nat Prod, 2002)
The source made the active and inactive calls.

What was measured:
Assay type in all cases: functional, cell-based
COLO 205 = assay: Cytotoxicity against human COLO205 cells at 10 ug/mL after 2 days by XTT assay
LOX = assay: Cytotoxicity against human LOX cells at 10 ug/mL after 2 days by XTT assay
Malme-3M = assay: Cytotoxicity against human MALME-3M cells at 10 ug/mL after 2 days by XTT assay
K562 = assay: Cytotoxicity against human K562 cells at 10 ug/mL after 2 days by XTT assay
MOLT-4 = assay: Cytotoxicity against human MOLT4 cells at 10 ug/mL after 2 days by XTT assay
A549 = assay: Cytotoxicity against human A549 cells at 10 ug/mL after 2 days by XTT assay
NCI-H460 = assay: Cytotoxicity against human H460 cells at 10 ug/mL after 2 days by XTT assay
OVACR3 = assay: Cytotoxicity against […] at 10 ug/mL after 2 days by XTT assay
SNB-19 = assay: Cytotoxicity against human SNB19 cells at 10 ug/mL after 2 days by XTT assay
MCF7 = assay: Cytotoxicity against human MCF7 cells at 10 ug/mL after 2 days by XTT assay

Measured: Activity

CO[C@@H]1[C@@H](OC)[C@H](O[C@H]2C[C@H]3C[C@@H]([C@H]4C[C@@H]4C)OC(=O)C[C@@H]4O[C@@H](C[C@H](O[C@@H]5OC[C@@H](OC)[C@H](OC)[C@H]5OC)[C@H]4C)C[C@@H]([C@H]4C[C@@H]4C)OC(=O)C[C@H](O3)[C@@H]2C)OC[C@H]1O
inactive: all assays above
